Experiments:
Assay in all cases: sunitinib treatment, viability of NSCLC cell line (IC50)
H1703 = format: cell-based
H520 = format: cell-based
H358 = format: cell-based
A549 = format: cell-based
H157 = format: cell-based
H322C = system: H322C

IC50 (H1703; Homo sapiens, NCI-H1703, H1703 cell line, sunitinib): < 0.5 µM | IC50 (H520; Homo sapiens, NCI-H520, H520 cell line, sunitinib): 1 to 3 µM | IC50 (H358; Homo sapiens, NCI-H358, H358 cell line, sunitinib): > 10 µM | IC50 (A549; Homo sapiens, A549 cell line, sunitinib): > 10 µM | IC50 (H157; Homo sapiens, NCI-H157, H157 cell line, sunitinib): > 10 µM | IC50 (H322C): 9 to 10 µM
SMILES: CCN(CC)CCNC(=O)c1c(C)[nH]c(/C=C2\C(=O)Nc3ccc(F)cc32)c1C [sunitinib, N-[2-(diethylamino)ethyl]-5-[(Z)-(5-fluoro-1,2-dihydro-2-oxo-3H-indol-3-ylidine)methyl]-2,4-dimethyl-1H-pyrrole-3-carboxamide]
sensitivity of cell line to sunitinib (H1703; untransfected H1703): sensitive (sunitinib sensitive (defined solely for the purposes of this example as having an IC50<3 μM)) | sensitivity of cell line to sunitinib (H520; untransfected H520): sensitive (sunitinib sensitive (defined solely for the purposes of this example as having an IC50<3 μM)) | sensitivity of cell line to sunitinib (H358; untransfected H358): resistant (sunitinib resistant (defined solely for the purposes of this example as having IC50>9 μM)) | sensitivity of cell line to sunitinib (A549; untransfected A549): resistant (sunitinib resistant (defined solely for the purposes of this example as having IC50>9 μM)) | sensitivity of cell line to sunitinib (H157; untransfected H157): resistant (sunitinib resistant (defined solely for the purposes of this example as having IC50>9 μM)) | sensitivity of cell line to sunitinib (H322C; untransfected H322C): resistant (sunitinib resistant (defined solely for the purposes of this example as having IC50>9 μM))
